# Source: patent publication US7902226B2, “Dehalogeno-compounds” (Daiichi Pharmaceutical Co., Ltd., priority 2000, dated 2011)
# Columns and labels:
# E. coli, NIHJ = assay: Antibacterial activity (MIC), standard method of the Japan Society of Chemotherapy; type: cell-based; conditions: Escherichia coli
# Description: (§1) Antibacterial activities of the compounds of this invention were measured in accordance to the standard method designated by the Japan Society of Chemotherapy, with the results shown as MIC values (microgram/ml) units in the following table. For comparison with the MIC values of the compounds of this invention, MIC values of levofloxacin (LVFX), ciprofloxacin (CPFX) and 7-[3-(R)-(1-aminocyclopropyl)pyrrolidin-1-yl]-6-fluoro-1-[2-(S)-fluoro-1-(R)-cyclopropyl]-8-methyl-1,4-dihydro-4-oxoquinoline-3-carboxylic acid (Reference drug 1), which is described in PCT/JP96/00208, are also shown in the table.
# K. pneumoniae, Type 1 = assay: as above; type: cell-based; conditions: Klebsiella pneumoniae, TYPE1
# Description: as §1
# Pr. vulgalis, 08601 = assay: as above; type: cell-based
# Description: as §1
# Ps. aeruginosa, 32104 = assay: as above; type: cell-based; conditions: Pseudomonas aeruginosa
# Description: as §1
# Ps. aeruginosa, 32121 = assay: as above; type: cell-based; conditions: Pseudomonas aeruginosa
# Description: as §1
# [1] = test system: Ps. maltophilia, IID-1275; assay: as above; type: cell-based; conditions: Stenotrophomonas maltophilia, IID1275
# Description: as §1
# S. aureus, 209P = assay: as above; type: cell-based; conditions: Staphylococcus aureus
# Description: as §1
# S. aureus, 870307 = assay: as above; type: cell-based; conditions: Staphylococcus aureus
# Description: as §1
# S. epidermidis, 56500 = assay: as above; type: cell-based; conditions: Staphylococcus epidermidis
# Description: as §1
# S. flexneri, 2A 5503 = assay: as above; type: cell-based; conditions: Shigella flexneri, 2A5503
# Description: as §1
# Ser. marcescens, 10100 = assay: as above; type: cell-based; conditions: Serratia marcescens
# Description: as §1
# [2] = test system: Str. faecalis, ATCC 19433; assay: as above; type: cell-based; conditions: Enterococcus faecalis, ATCC19433
# Description: as §1
# Str. pneumoniae J24 = assay: as above; type: cell-based; conditions: Streptococcus pneumoniae
# Description: as §1
# Str. pyogenes, G-36 = assay: as above; type: cell-based; conditions: Streptococcus pyogenes, G36
# Description: as §1
# bone marrow of mice = assay: Micronucleus test in bone marrow of mice; type: in vivo; conditions: Slc:ddY male mice, 24 hours after administration
# Description: For the compound described as Example 1 of this invention, the micronucleus test in bone marrow of mice was performed by the following method.
# Mice groups, each consisting of five, six-week-old, Slc:ddY male mice, were used. The compound of this invention described as Example 1 and 7-[3-(R)-(1-aminocyclopropyl)pyrrolidin-1-yl]-6-fluoro-1-[2-(S)-fluoro-1-(R)-cyclopropyl]-8-methyl-1,4-dihydro-4-oxoquinoline-3-carboxylic acid (Reference drug 1) described in PCT/JP96/00208 were dissolved in and diluted with 0.1 mol/l NaOH/saline solution. The 0.1 mol/l NaOH/saline solvent was used as a control, and as a positive Reference drug, a drug solution, prepared by dissolving and diluting cyclophosphamide (CP) in saline solution, was used. All drug solutions were disinfected by filtration through Mylex GS 0.22 μm filters. With each drug solution, a single intravenous dose of 10 ml/kg was administered at an administration rate of 0.2 ml/min. 24 hours after administration, […] were collected from the femur bone, the smear preparations were prepared, and these were dyed with […].
# [3] = Urinary excretion after oral administration (excretion test groups); type: in vivo; conditions: fasting rats, 20 mg/kg, urine 0-24 h
# Description: An administration solution was prepared by dissolving a tested compound to a concentration of 2 mg/ml (as free compound) in distilled water, and using a 2.5 ml disposable syringe or a metal oral probe, the solution was orally administered at a dose of 20 mg/kg to fasting rats (Crj: CD IGS; male; 7-week-old; Charles River Japan, Inc.). […]
# Determination of drug concentrations in liquid samples were quantified by an agar well method bioassay using the B. subtilis ATCC6051 strain as the test organism. […] After addition of the sample, the plate medium was set still for 1 hour at 4° C. to perform preliminary dispersion and then culturing at 37° C. was performed for approximately 18 hours, and the inhibition ring diameters were measured using CA-400 (Dainippon Seiki). The concentrations of the test samples were measured using a calibration curve determined by second-order regression from the logarithmic values of the drug concentration of the calibration curve serial dilutions and the inhibition ring diameters.
# The urinary excretion rate (%) was determined from the amount (μg) of drug administered, amount (ml) of urine (or washing solution), and concentration (μ/ml) in urine (or washing solution): [(Urinary excretion rate]=100×([Amount of urine]×[Concentration in urine])/[Amount of drug administered] Method 3: Calculation of Pharmacokinetic Parameters
SMILES,"MIC (E. coli, NIHJ) [µg/mL]","MIC (K. pneumoniae, Type 1) [µg/mL]","MIC (Pr. vulgalis, 08601) [µg/mL]","MIC (Ps. aeruginosa, 32104) [µg/mL]","MIC (Ps. aeruginosa, 32121) [µg/mL]",MIC [1] [µg/mL],"MIC (S. aureus, 209P) [µg/mL]","MIC (S. aureus, 870307) [µg/mL]","MIC (S. epidermidis, 56500) [µg/mL]","MIC (S. flexneri, 2A 5503) [µg/mL]","MIC (Ser. marcescens, 10100) [µg/mL]",MIC [2] [µg/mL],MIC (Str. pneumoniae J24) [µg/mL],"MIC (Str. pyogenes, G-36) [µg/mL]","micronucleus induction, judgment result (bone marrow of mice; single intravenous dose, 25, 50, and 100 mg/kg administration groups, versus control)",Urinary recovery ratio (per dose) 0-24 h [3] [%],"micronucleus induction in comparison to the control (bone marrow of mice; single intravenous dose, 50 and 100 mg/kg administration groups)"
"Cc1c(N2CC[C@@H](C3(N)CC3)C2)ccc2c(=O)c(C(=O)O)cn([C@@H]3C[C@@H]3F)c12 [Example 1, 7-[3-(R)-(1-aminocyclopropyl)pyrrolidin-1-yl]-1-[2-(S)-fluoro-1-(R)-cyclopropyl]-1,4-dihydro-8-methyl-4-oxoquinoline-3-carboxylic acid]",≤ 0.003,0.025,≤ 0.003,0.05,0.025,0.2,≤ 0.003,0.05,≤ 0.003,0.006,0.025,0.012,≤ 0.003,≤ 0.003,negative,8.1,–
"Cc1c(N2CC[C@@H](C3(N)CC3)C2)c(F)cc2c(=O)c(C(=O)O)cn([C@@H]3C[C@@H]3F)c12 [Reference drug 1, 7-[3-(R)-(1-aminocyclopropyl)pyrrolidin-1-yl]-6-fluoro-1-[2-(S)-fluoro-1-(R)-cyclopropyl]-8-methyl-1,4-dihydro-4-oxoquinoline-3-carboxylic acid, reference compound]",≤ 0.003,0.006,≤ 0.003,0.025,0.012,≤ 0.003,≤ 0.003,0.012,≤ 0.003,≤ 0.003,0.012,0.006,≤ 0.003,≤ 0.003,–,1.8,clearly seen
